Patent US7067700B2, “Process for preparing sertraline hydrochloride polymorphic form II” (Fermion Oy, priority 2001, dated 2006)
Where a name gives a salt, the structure may show the parent alone.

Columns and labels:
[1] = stability of sertraline hydrochloride polymorphic forms; format: physicochemical; details: statement in words
[2] = dissolution / solubility of sertraline hydrochloride polymorphic forms; format: physicochemical; details: comparison of polymorphic forms; statement in words
[3] = claimed in the cited patent; cited from earlier work
[4] = claimed in the cited patent; cited from earlier work; remark: listed apart in the source

Row | stability of the polymorph ([1]; form II prepared by the method described, no test described) | Compound | stability of the polymorph (comparison of forms) ([1]; compared with form II) | dissolution properties [2] | stability as claimed in U.S. Pat. No. 5,734,083 [3] | solubility in aqueous fluids as claimed in U.S. Pat. No. 5,734,083 [4]
1 | stable | CNC1CCC(c2ccc(Cl)c(Cl)c2)c2ccccc21 (stereo not drawn) [(1S-cis)-4-(3,4-dichlorophenyl)-1,2,3,4-tetrahydro-N-methyl-1-naphtalenamine hydrochloride] |  |  |  | 
2 |  | CN[C@H]1CC[C@@H](c2ccc(Cl)c(Cl)c2)c2ccccc21.Cl [Form I] | more stable | poor dissolution properties |  | 
3 |  | CN[C@H]1CC[C@@H](c2ccc(Cl)c(Cl)c2)c2ccccc21.Cl [Polymorphic form T1] |  | dissolves better than forms I and II | acceptable stable | enhanced solubility
